Laboratory results: article PMC5601486, “Identification of 4-phenylquinolin-2(1H)-one as a specific allosteric inhibitor of Akt” (Scientific Reports, 2017)

Legend:
FoxO1 phosphorylation = assay: Western blot of Akt downstream signaling; format: cell-based, Mouse; conditions: Neuro 2A cells, dose-dependent
Experimental: (§1) Neuro 2A cells were seeded in 12-well plates in DMEM containing 5% FBS for 24 hr.
(§2) After overnight serum starvation (in 0% FBS DMEM), cells were incubated for 30 min at 37 °C with G7 or LY294002 or Torin 1 (Sigma Aldrich) at various concentrations, or DMSO control. IGF-1 was added to each well at a final concentration of 100 ng/mL. After 30-min incubation cells were washed with cold PBS and lysed with 50 µL lysis buffer containing 1% Triton X-100 and protease/phosphatase inhibitors (Cell Signaling Technology) or RIPA buffer (Santa Cruz Biotech). Samples were electrophoresed in 4–12% Bis-Tris gels (Life Technologies) at 150 V using MOPS SDS running buffer. Proteins were transferred electrophoretically to a PVDF or nitrocellulose membrane. For detection of cleaved […]
(§3) caspase 3 a Trans-Blot Turbo Transfer System (Bio-Rad, 25 V for 25 min) with PVDF membrane were used. […]
(§4) anti- GAPDH (14C10) antibody (#2118) (all antibodies were from Cell Signaling Technology unless indicated, 1:1000 dilution was used) at 4°C overnight, washed three times with TBS-T, then incubated with peroxidase-conjugated secondary antibody (Sigma-Aldrich) for 1 hr at room temperature. […] Band intensity was quantitated using Kodak 1D imaging analysis software. […]

GSK-3β phosphorylation = assay: Western blot of Akt downstream signaling; format: cell-based, Mouse; conditions: Neuro 2A cells, dose-dependent
Experimental: as §1, §2, §3, §4

Akt-PIP3 association = system: T1, Akt-PIP3 association; assay: PIP3-Akt pull-down assay; format: binding; conditions: inactive Akt, PIP3 beads
T1 construct: purchased Millipore 14-279
Experimental: according to the method reported previously6. Briefly, the lipids dissolved in methanol/chloroform were mixed at desired proportions and dried with a N2 steam.
The lipid mixture was redissolved in 2 mL cyclohexane containing 75 μM BHT (2,6-di-tert-butyl-p-cresol) and lyophilized under vacuum. Unilamellar vesicles were obtained by reconstituting the dried sample with 1 mL of PBS (pH 7.4) containing 50 μM DTPA (diethylenetriamine pentaacetic acid) followed by extrusion with 0.1 μm polycarbonate membrane (Corning, Inc.). For in vitro phosphorylation of Akt, 1 μL […]
mixture was resolved on SDS gel followed by western blot analysis.
The assay was performed using a protocol published previously7.
(50 ng) in PBS containing 400 ng/mL BSA was incubated with inhibitor G7 or a PI analog (EMD Millipore, #124005) for 2 hr at 4 °C. 25 µL PIP3 beads (Echelon, #P-B345a) was added to the sample and incubated overnight at 4 °C. The beads were washed with washing buffer containing 10 mM HEPES (pH 7.5), 0.25% NP-40 and 150 mM NaCl. Akt was eluted with 2x LDS and measured by immunoblotting.
Chemical cross-linking and mass spectrometry

ACVR2A = assay: KINOMEscan; conditions: 50000 nM
Experimental: KINOMEscan™ selectivity screen
(§5) The assay was perfor med at DiscoveRx Corporation according the methods published previously5. Briefly, Kinase-tagged T7 phage strains were grown in parallel in an E. coli host derived from the BL21 strain. E. coli were grown to log-phase and infected with T7 phage from a frozen stock and incubated with shaking at 32°C until lysis (90-150 minutes). The kinases were produced in HEK-293 cells and subsequently tagged with DNA for qPCR detection. Streptavidin-coated magnetic beads were treated with biotinylated small molecule ligands to generate affinity resins for kinase
(§6) inhibitor or DMSO control was performed in polypropylene 384-well plates for 1 hr at room temperature. After wash with PBS buffer containing 0.05% Tween 20, the beads were incubated in elution buffer (PBS containing 0.05 % Tween 20 and 0.5 μM non-biotinylated affinity ligand) for 30 minutes at room temperature. The kinase concentration in the eluates was measured by qPCR.

CDKL1 = assay: KINOMEscan; conditions: 50000 nM
Experimental: KINOMEscan™ selectivity screen
(§7) Briefly, Kinase-tagged T7 phage strains were grown in parallel in an E. coli host derived from the BL21 strain. E. coli were grown to log-phase and infected with T7 phage from a frozen stock and incubated with shaking at 32°C until lysis (90-150 minutes). The kinases were produced in HEK-293 cells and subsequently tagged with DNA for qPCR detection. Streptavidin-coated magnetic beads were treated with biotinylated small molecule ligands to generate affinity resins for kinase
as §6

EGFR(T790M) = assay: KINOMEscan; conditions: 50000 nM
Experimental: KINOMEscan™ selectivity screen
as §5, §6

MTOR = assay: KINOMEscan; conditions: 50000 nM
Experimental: KINOMEscan™ selectivity screen
as §5, §6

NEK5 = assay: KINOMEscan; conditions: 50000 nM
Experimental: KINOMEscan™ selectivity screen
as §5, §6

PIP5K2B = assay: KINOMEscan; conditions: 50000 nM
Experimental: KINOMEscan™ selectivity screen
as §5, §6

TYRO3 = assay: KINOMEscan; conditions: 50000 nM
Experimental: KINOMEscan™ selectivity screen
as §5, §6

ADCK3 = assay: KINOMEscan; conditions: 50000 nM
Experimental: KINOMEscan™ selectivity screen
as §5, §6

PIK3CA(H1047L) = assay: KINOMEscan; conditions: 50000 nM
Experimental: KINOMEscan™ selectivity screen
as §5, §6

PKN1 = assay: KINOMEscan; conditions: 50000 nM
Experimental: KINOMEscan™ selectivity screen
as §5, §6

PRKD3 = assay: KINOMEscan; conditions: 50000 nM
Experimental: KINOMEscan™ selectivity screen
as §5, §6

ERK4 = assay: KINOMEscan; conditions: 50000 nM
Experimental: KINOMEscan™ selectivity screen
as §5, §6

PKAC-beta = assay: KINOMEscan; conditions: 50000 nM
Experimental: KINOMEscan™ selectivity screen
as §5, §6

ABL1-nonphosphorylated = assay: KINOMEscan; conditions: 50000 nM
Experimental: KINOMEscan™ selectivity screen
as §5, §6

PLK4 = assay: KINOMEscan; conditions: 50000 nM
Experimental: KINOMEscan™ selectivity screen
as §5, §6

CAMK1G = assay: KINOMEscan; conditions: 50000 nM
Experimental: KINOMEscan™ selectivity screen
as §7, §6

CSNK1G3 = assay: KINOMEscan; conditions: 50000 nM
Experimental: KINOMEscan™ selectivity screen
as §7, §6

CSNK2A2 = assay: KINOMEscan; conditions: 50000 nM
Experimental: KINOMEscan™ selectivity screen
as §7, §6

MARK2 = assay: KINOMEscan; conditions: 50000 nM
Experimental: KINOMEscan™ selectivity screen
as §7, §6

CLK2 = assay: KINOMEscan; conditions: 50000 nM
Experimental: KINOMEscan™ selectivity screen
as §5, §6

TNIK = assay: KINOMEscan; conditions: 50000 nM
Experimental: KINOMEscan™ selectivity screen
as §7, §6

KIT(D816V) = assay: KINOMEscan; conditions: 50000 nM
Experimental: KINOMEscan™ selectivity screen
as §5, §6

MST4 = assay: KINOMEscan; conditions: 50000 nM
Experimental: KINOMEscan™ selectivity screen
(§8) The assay was perfor med at DiscoveRx Corporation according the methods published previously5. […] The kinases were produced in HEK-293 cells and subsequently tagged with DNA for qPCR detection. Streptavidin-coated magnetic beads were treated with biotinylated small molecule ligands to generate affinity resins for kinase
as §6

BIKE = assay: KINOMEscan; conditions: 50000 nM
Experimental: KINOMEscan™ selectivity screen
as §8, §6

MERTK = assay: KINOMEscan; conditions: 50000 nM
Experimental: KINOMEscan™ selectivity screen
as §5, §6

FLT3(ITD,D835V) = assay: KINOMEscan; conditions: 50000 nM
Experimental: KINOMEscan™ selectivity screen
as §5, §6

[1] = system: RSK4(Kin.Dom.1-N-terminal); assay: KINOMEscan; conditions: 50000 nM
Experimental: KINOMEscan™ selectivity screen
as §5, §6

For Oc1cc(-c2ccccc2)c2ccccc2n1 [G7, 4-phenylquinolin-2(1H)-one], which “phosphorylation of FoxO1” value (FoxO1 phosphorylation) is on record?
Its value is “decreased”.

What about the “phosphorylation of GSK-3β” value (GSK-3β phosphorylation) of the same molecule?
Its value is “decreased”.

What about the “effect on the Akt-PIP3 association” value (Akt-PIP3 association) of the same molecule?
Its value is “insignificant effect”.

What about the “Percent Control” value (ACVR2A) of the same molecule?
The value was 100%.

What about the “Percent Control” value (CDKL1) of the same molecule?
Its value is 100%.

And the “Percent Control” value (EGFR(T790M))?
Its value is 100%.

What about the “Percent Control” value (MTOR) of the same molecule?
The value was 100%.

What about the “Percent Control” value (NEK5) of the same molecule?
The value was 100%.

And the “Percent Control” value (PIP5K2B)?
The value was 100%.

And the “Percent Control” value (TYRO3)?
Its value is 93%.

What about the “Percent Control” value (ADCK3) of the same molecule?
Its value is 92%.

What about the “Percent Control” value (PIK3CA(H1047L)) of the same molecule?
The value was 89%.

And the “Percent Control” value (PKN1)?
The value was 89%.

And the “Percent Control” value (PRKD3)?
Its value is 89%.

And the “Percent Control” value (ERK4)?
Its value is 86%.

What about the “Percent Control” value (PKAC-beta) of the same molecule?
The value was 86%.

What about the “Percent Control” value (ABL1-nonphosphorylated) of the same molecule?
Its value is 81%.

And the “Percent Control” value (PLK4)?
Its value is 80%.

What about the “Percent Control” value (CAMK1G) of the same molecule?
The value was 77%.

What about the “Percent Control” value (CSNK1G3) of the same molecule?
Its value is 71%.

What about the “Percent Control” value (CSNK2A2) of the same molecule?
Its value is 70%.

And the “Percent Control” value (MARK2)?
Its value is 65%.

What about the “Percent Control” value (CLK2) of the same molecule?
Its value is 64%.

What about the “Percent Control” value (TNIK) of the same molecule?
Its value is 60%.

And the “Percent Control” value (KIT(D816V))?
The value was 58%.

What about the “Percent Control” value (MST4) of the same molecule?
The value was 53%.

What about the “Percent Control” value (BIKE) of the same molecule?
Its value is 52%.

And the “Percent Control” value (MERTK)?
Its value is 42%.

What about the “Percent Control” value (FLT3(ITD,D835V)) of the same molecule?
The value was 34%.

And the “Percent Control” value [1]?
Its value is 34%.
